Results reported in US12275725B2, “Inhibitors of the notch transcriptional activation complex and methods for use of the same” (University of Miami, priority 2019, dated 2025).
Converted amounts (≈) assume the structure as drawn. Like-named read-outs stand apart in the source and are kept apart here. Values belong to the compound of their own block, whether it stands above or below them.

Legend:
[1] = Aqueous solubility in SGF, FaSSIF and PBS
[2] = target: T1, Notch transcriptional activation complex (NTC) (Homo sapiens, UniProt P46531+Q06330); experiment: Notch complex assembly assay (NTC AlphaScreen assay); format: binding
T1 construct: made in house; host or cells: SF21 insect cells (baculovirus)
T1 sequence (P46531 1754-2555 limits assumed): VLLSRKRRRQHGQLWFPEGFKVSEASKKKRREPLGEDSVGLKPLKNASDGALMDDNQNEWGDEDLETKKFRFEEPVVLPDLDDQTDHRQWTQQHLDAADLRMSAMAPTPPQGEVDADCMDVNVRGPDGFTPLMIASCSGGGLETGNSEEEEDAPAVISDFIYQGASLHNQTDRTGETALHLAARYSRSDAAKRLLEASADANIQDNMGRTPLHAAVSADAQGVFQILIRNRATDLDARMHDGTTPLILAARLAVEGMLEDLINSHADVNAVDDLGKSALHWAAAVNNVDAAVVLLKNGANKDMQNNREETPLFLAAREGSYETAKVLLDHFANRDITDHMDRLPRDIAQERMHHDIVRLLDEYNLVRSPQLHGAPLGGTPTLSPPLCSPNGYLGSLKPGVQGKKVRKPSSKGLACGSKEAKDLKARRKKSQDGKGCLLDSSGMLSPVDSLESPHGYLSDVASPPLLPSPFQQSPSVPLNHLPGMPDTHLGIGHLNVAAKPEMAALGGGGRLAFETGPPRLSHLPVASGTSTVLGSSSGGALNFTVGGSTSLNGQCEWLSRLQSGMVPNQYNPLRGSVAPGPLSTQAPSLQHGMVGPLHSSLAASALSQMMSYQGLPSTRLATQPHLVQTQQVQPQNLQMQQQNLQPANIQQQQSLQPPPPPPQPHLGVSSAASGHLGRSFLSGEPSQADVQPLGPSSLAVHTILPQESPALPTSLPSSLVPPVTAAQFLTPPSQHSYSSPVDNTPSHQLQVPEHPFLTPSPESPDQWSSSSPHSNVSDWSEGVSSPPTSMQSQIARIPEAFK
T1 sequence (Q06330 whole entry): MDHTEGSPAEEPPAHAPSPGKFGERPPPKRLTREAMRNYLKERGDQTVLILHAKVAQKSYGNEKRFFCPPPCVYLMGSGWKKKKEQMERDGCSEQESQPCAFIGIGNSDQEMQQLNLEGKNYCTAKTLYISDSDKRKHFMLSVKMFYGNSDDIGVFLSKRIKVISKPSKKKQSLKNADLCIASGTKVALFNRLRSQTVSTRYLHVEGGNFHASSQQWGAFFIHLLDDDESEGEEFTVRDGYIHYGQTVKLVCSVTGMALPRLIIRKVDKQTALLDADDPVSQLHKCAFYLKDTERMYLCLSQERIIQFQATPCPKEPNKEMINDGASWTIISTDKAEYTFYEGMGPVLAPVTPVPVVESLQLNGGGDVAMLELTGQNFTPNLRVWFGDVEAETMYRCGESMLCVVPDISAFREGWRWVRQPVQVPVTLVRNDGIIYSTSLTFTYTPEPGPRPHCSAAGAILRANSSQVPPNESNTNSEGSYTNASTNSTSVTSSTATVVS
Protocol: Notch Complex Assembly Assay
All recombinant proteins were expressed using baculovirus expression vectors in SF21 cells and purified. Unless otherwise stated, all assays contained 125 fmol of double stranded oligonucleotide, CSL, Notch1 and MAML1 proteins. Reactions were carried out in Tris-buffered saline with 0.1% Tween (“TBS-T”) buffer containing 0.2% bovine serum albumin (“BSA”) and 100 μg/mL salmon sperm DNA. Briefly, the Notch complex was assembled on a biotinylated double stranded (“DS”) oligonucleotide harboring one CSL binding site (5′-[…]-3′). Complex assembly was quantitated using ALPHASCREEN technology (Perkin Elmer). Proteins in the complexes were detected using specific antibodies to either MAML1 (Cell signaling, D3K7B), Notch1 (Abcam, 52627) or CSL (anti-His, Abcam 18184). Streptavidin conjugated […] beads (Perkin Elmer, 6760002) were used to bind the DS oligonucleotide, and Protein-A conjugated […] beads (Perkin Elmer, 6760137) were used to detect antibody-coated proteins. For screening compounds, Notch transcriptional activation complex (“NTC”) components were added to wells that already contained the inhibitor to be assayed and allowed to incubate for 30 minutes. The ALPHASCREEN plate (Perkin Elmer, 6008350) was then read on an Envision Plate reader (Perkin Elmer) as specified by the manufacturer.

[3] = GSH ethyl ester conjugation / parent remaining in human liver microsomes; format: in vitro ADME; settings: for Percentage (%) Parent Remaining in HLM: reacted with GSH
[4] = Pharmacokinetic study in mouse plasma; format: in vivo; settings: for Cmax: read-out: *C0/Cmax
Protocol: Pharmacokinetic studies were performed as previously described (Astudillo et al. (2016) Cancer Res). The following treatments were administered: NADi-260 via intraperitoneal (i.p.) route at 100 mg/kg, NADI-260 via intravenous route (i.v.) at 2 mg/kg, NADi-351 via i.p. at 10 mg/kg, NADi-351 via […] at 10 mg/kg and NADi-351 via oral route (PO) at 50 mg/kg. Blood samples were collected from each treatment group and their respective control grounds, plasma was separated from blood immediately by centrifugation at 4000 rpm for 10 min at 4° C. and stored below −70° C. until bioanalysis. All samples were processed for analysis by protein precipitation using acetonitrile and analyzed by fit for purpose LC-MS/MS method. Pharmacokinetic parameters were calculated using the non-compartmental analysis module of Phoenix WinNonlin (Version 6.3). Histological Analysis of Mouse Intestine Tissue

OE 33 cell line = experiment: Cell viability, MTT, OE33 cell line; format: cell-based, human; settings: for IC50: Homo sapiens, OE33, 72 h treatment
Text: OE33 cells, human esophageal adenocarcinoma cell lines, were obtained from the European Collection of Cell Culture. SUM-149 and SUM-159, breast cancer cell lines, were obtained from Dr. Joyce Slingerland at the University of Miami School of Medicine. The following cell lines were obtained directly from the ATCC: 786-0, a human renal cell adenocarcinoma cell line; HT-1080, a human fibrosarcoma cell line; MCF-7, a mammary gland adenocarcinoma; T47D, a human mammary ductal carcinoma cell line; and H-23 a non-small cell lung adenocarcinoma cell line. All cell lines were propagated in growth media as specified.

[5] = Metabolism to acid form in mouse hepatocytes; format: in vitro ADME; settings: to SSTN-258
[6] = Metabolism to acid form in liver microsomes; format: in vitro ADME; settings: to SSTN-258
[7] = pH 1.2, simulated gastric fluid
[8] = Table C, NTC AlphaScreen assay, read-out: *IC50
[9] = Table E, NTC AlphaScreen assay, read-out: *IC50
[10] = ip, NADi-260 i.p. 100 mg/kg, mouse plasma
[11] = iv, NADi-260 i.v. 2 mg/kg, mouse plasma, back extrapolated, initial three time points only
[12] = iv, NADi-260 i.v. 2 mg/kg, mouse plasma, initial three time points only
[13] = Table B, read-out: IC50 (μM) NTC

SMILES: O=C(O)CCCc1ccc(N(CCCl)CCCl)cc1 [Chlorambucil, chlorambucil]
- solubility [1, 7]: 70.4 ± 2.6 µM (≈ 21.4 µg/mL)
- solubility ([1]; pH 6.5, fassif): 68.9 ± 1.9 µM (≈ 21 µg/mL)

SMILES: CC/C(=C(/CC)c1ccc(O)cc1)c1ccc(O)cc1 [DES, diethylstilbestrol, reference compound]
- solubility (physchem; pH 7.4, aqueous buffer): < 5 µM

SMILES: CCN(CC)C(=O)COc1c(F)cc(/C=C2\SC(=S)N(CC(=O)N(C)C)C2=O)cc1OC [NADi-244]
- IC50 [2, 8]: 2.9 µM

SMILES: COc1cc(/C=C2\SC(=S)N(CC(=O)N(C)C)C2=O)cc(F)c1OCc1ncco1 [NADi-248]
- *IC50 (μM) ([2]; Table C, NTC AlphaScreen assay): Inactive

SMILES: COc1cc(/C=C2\SC(=S)N(CC(=O)N(C)C)C2=O)cc(F)c1OCc1ncc(C)o1 [NADi-249]
- *IC50 (μM) ([2]; Table C, NTC AlphaScreen assay): Inactive

SMILES: COc1cc(/C=C2\SC(=S)N(CC(=O)N(C)C)C2=O)cc(F)c1OCc1nc(C)c(C)o1 [NADi-251]
- *IC50 (μM) ([2]; Table C, NTC AlphaScreen assay): Inactive

SMILES: CCc1coc(COc2c(F)cc(/C=C3\SC(=S)N(CC(=O)N(C)C)C3=O)cc2OC)n1 [NADi-253]
- IC50 [2, 8]: 0.3 µM

SMILES: COc1cc(/C=C2\SC(=S)N(CC(=O)N(C)C)C2=O)cc(F)c1OCc1nnc(C)o1 [NADi-255]
- *IC50 (μM) ([2]; Table C, NTC AlphaScreen assay): Inactive

SMILES: CCc1nnc(COc2c(F)cc(/C=C3\SC(=S)N(CC(=O)N(C)C)C3=O)cc2OC)o1 [NADi-256]
- *IC50 (μM) ([2]; Table C, NTC AlphaScreen assay): Inactive

SMILES: COc1cc(/C=C2\SC(=S)N(CC(=O)N(C)C)C2=O)cc(F)c1OCc1nc(C)no1 [NADi-258]
- *IC50 (μM) ([2]; Table C, NTC AlphaScreen assay): Inactive

SMILES: CCc1noc(COc2c(F)cc(/C=C3\SC(=S)N(CC(=O)N(C)C)C3=O)cc2OC)n1 [NADi-259]
- *IC50 (μM) ([2]; Table C, NTC AlphaScreen assay): Inactive

SMILES: COc1cc(/C=C2\SC(=S)N(CC(=O)N(C)C)C2=O)cc(F)c1OCc1nc[nH]n1 [NADi-260, (Z)-2-(5-(4-((1H-1,2,4-triazol-3-yl)methoxy)-3-fluoro-5-methoxybenzylidene)-4-oxo-2-thioxothiazolidin-3-yl)-N,N-dimethylacetamide]
- IC50 [2, 8]: 0.02 µM
- IC50 [2, 9]: 0.02 µM
- Percentage (%) Parent Remaining in HLM ([3]; incubation time 0 min): 100%
- Percentage (%) Parent Remaining in HLM ([3]; incubation time 60 min): 46%
- GSH ethyl ester conjugation in HLM ([3]; within 60 minutes of incubation): showed GSH ethyl ester conjugation
- AUC(0-inf) [4, 10]: 5420 ng·h/mL
- AUC(0-t) [4, 10]: 5320 ng·h/mL
- Tmax [4, 10]: 4.8 min
- Cmax [4, 10]: 5700 ng/mL
- Cmax [4, 11]: 837 ng/mL
- clearance ([4]; iv, NADi-260 i.v. 2 mg/kg, mouse plasma, cell says NR, value in footnote): 429 mL/min/kg
- AUC(0-inf) [4, 12]: 78 ng·h/mL
- AUC(0-t) [4, 12]: 77 ng·h/mL
- half-life [4, 12]: 4.8 min
- Vd ([4]; iv, NADi-260 i.v. 2 mg/kg, mouse plasma, read-out: Vss): 1.79 L/kg

SMILES: COc1cc(/C=C2\SC(=S)N(CC(=O)N(C)C)C2=O)cc(F)c1OCc1nnc(C)[nH]1 [NADi-261]
- IC50 [2, 8]: 0.62 µM

SMILES: CCc1nnc(COc2c(F)cc(/C=C3\SC(=S)N(CC(=O)N(C)C)C3=O)cc2OC)[nH]1 [NADi-262]
- IC50 [2, 8]: 0.08 µM

SMILES: COc1ccc2[nH]c([S+]([O-])Cc3ncc(C)c(OC)c3C)nc2c1 (centres unmarked) [Omeprazole, omeprazole, reference compound]
- solubility (physchem; [7]): < 5 µM
- solubility (physchem; pH 6.5, fassif): 174 ± 5.4 µM (≈ 60 µg/mL)

Further lines, with some results ahead:

- plasma level of metabolite ([4]; after NADi-260 i.v. 2 mg/kg, mouse plasma): BQL
- AUC(0-t) [4, 10]: 21 ng·h/mL
- Tmax [4, 10]: 15 min
- Cmax [4, 10]: 41 ng/mL
SMILES: COc1cc(/C=C2\SC(=S)N(CC(=O)N(C)C)C2=O)cc(F)c1O [PM6]

- AUC(0-inf) [4, 10]: 19100 ng·h/mL
- AUC(0-t) [4, 10]: 18800 ng·h/mL
- Tmax [4, 10]: 15 min
- Cmax [4, 10]: 8520 ng/mL
- Cmax [4, 11]: 3480 ng/mL
- AUC(0-inf) [4, 12]: 310 ng·h/mL
- AUC(0-t) [4, 12]: 308 ng·h/mL
SMILES: COc1cc(CC2SC(=S)N(CC(=O)N(C)C)C2=O)cc(F)c1OCc1nnc[nH]1 (centres unmarked) [PM7]

- IC50 [2, 13]: 5.1 µM
SMILES: CCOC(=O)COc1ccc(F)cc1/C=C1\SC(=S)N(CC(=O)N(C)C)C1=O [SSTN-251]
- IC50 (OE 33 cell line): 12.8 µM

- time to metabolize to acid form [5]: ≤ 15 min
- time to metabolize to acid form [6]: ≤ 15 min
- IC50 [2, 13]: 0.058 µM
- IC50 [2, 8]: 0.06 µM
- IC50 [2, 9]: 0.06 µM
- metabolism in mouse plasma ([4]; pharmacokinetic study of SSTN-253, FIG. 1C): metabolizes to its acid form (SSTN-258)
SMILES: CCOC(=O)COc1c(F)cc(/C=C2\SC(=S)N(CC(=O)N(C)C)C2=O)cc1OC [SSTN-253]
- IC50 (OE 33 cell line): 9.3 µM

- IC50 [2, 13]: 4.4 µM
SMILES: COc1cc(/C=C2\SC(=S)N(CC(=O)N(C)C)C2=O)ccc1OCC(=O)O [SSTN-254]
- IC50 (OE 33 cell line): > 25 µM

- inhibition of NTC assembly ([2]; FIG. 1B): did not inhibit
- IC50 (μM) NTC ([2]; Table B): Inactive
SMILES: COc1cc(/C=C2\SC(=S)N(CC(=O)N(C)C)C2=O)cc(F)c1OCC(=O)O [SSTN-258]
- Cell viability (MTT, μM, 72 h treatment OE 33 cell line) (OE 33 cell line): No effect
